# From PubChem BioAssay AID1645862 (Buhrlage Lab, Dana-Farber Cancer Institute and Novartis …, 2021)
# pIC50: −log10 of the molar value. Calls of active or inactive are those of the source. The rule behind the calls is not given here.
# Biological target: Ubiquitin carboxyl-terminal hydrolase 8 (Homo sapiens) (UniProt P40818)
# Assay: Ubiquitin-specific protease 8 inhibitors, concentration-effect, biochemical, validation of initial actives (AID 1645862);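 note: potency reflects inhibition of USP8 cleavage of a ubiquitin rhodamine substrate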
# Settings: recombinant USP8 deubiquitinase activity assay
# Ubiquitin carboxyl-terminal hydrolase 8 (Homo sapiens), sequence (P40818 whole entry, looked up): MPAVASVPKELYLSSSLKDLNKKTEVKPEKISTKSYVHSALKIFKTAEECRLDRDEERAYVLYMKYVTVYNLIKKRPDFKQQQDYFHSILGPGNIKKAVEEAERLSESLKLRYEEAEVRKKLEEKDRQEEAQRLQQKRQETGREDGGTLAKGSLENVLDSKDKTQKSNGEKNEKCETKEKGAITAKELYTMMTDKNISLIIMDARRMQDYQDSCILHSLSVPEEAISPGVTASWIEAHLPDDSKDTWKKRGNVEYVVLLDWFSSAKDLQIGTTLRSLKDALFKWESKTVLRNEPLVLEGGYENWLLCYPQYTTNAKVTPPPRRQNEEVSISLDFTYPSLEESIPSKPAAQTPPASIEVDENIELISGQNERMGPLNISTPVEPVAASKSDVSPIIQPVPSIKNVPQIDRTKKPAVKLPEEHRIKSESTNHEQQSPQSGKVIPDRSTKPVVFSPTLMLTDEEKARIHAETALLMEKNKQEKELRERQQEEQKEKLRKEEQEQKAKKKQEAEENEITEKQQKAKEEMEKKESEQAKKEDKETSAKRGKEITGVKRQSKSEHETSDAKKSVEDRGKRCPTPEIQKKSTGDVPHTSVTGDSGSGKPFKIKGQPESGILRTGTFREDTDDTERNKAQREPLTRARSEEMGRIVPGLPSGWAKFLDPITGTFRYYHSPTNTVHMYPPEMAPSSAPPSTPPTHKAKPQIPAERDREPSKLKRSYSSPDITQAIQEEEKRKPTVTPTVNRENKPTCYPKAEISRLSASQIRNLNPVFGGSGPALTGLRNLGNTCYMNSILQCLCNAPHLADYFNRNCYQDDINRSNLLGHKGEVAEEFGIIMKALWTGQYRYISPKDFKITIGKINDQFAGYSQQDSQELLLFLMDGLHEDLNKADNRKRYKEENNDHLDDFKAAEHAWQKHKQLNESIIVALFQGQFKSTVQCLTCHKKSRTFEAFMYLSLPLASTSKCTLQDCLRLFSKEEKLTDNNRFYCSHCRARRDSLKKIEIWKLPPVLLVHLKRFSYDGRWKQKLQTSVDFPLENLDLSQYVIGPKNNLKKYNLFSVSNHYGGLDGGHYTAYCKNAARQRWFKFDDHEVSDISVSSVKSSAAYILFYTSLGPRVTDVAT
Compound,IC50,pIC50
O=C(CCCC(=O)N(c1ccc2c(c1)OCCO2)C(C(=O)NC1CCCCC1)c1ccc(F)cc1)Nc1ccccn1 (stereo unspecified),> 40 µM (inactive),
CCOc1ccc(-c2nnc(NC(=O)C3CCN(S(=O)(=O)c4ccc5c(c4)CCC5)CC3)o2)cc1,> 40 µM (inactive),
O=c1c2ccccc2nc(/C=C/c2ccco2)n1Cc1ccccc1,> 40 µM (inactive),
Cc1cccc(C)c1NC(=O)Cn1c(=O)n(CCCCC(=O)NCc2ccc3c(c2)OCO3)c(=O)c2ccccc21,> 40 µM (inactive),
O=C(COc1ccc(Cl)cc1)Nc1noc(-c2ccccc2)n1,,4.41
CCN(Cc1ccccc1)C(=O)C1CCN(Cc2ccc(OC)c(OC)c2OC)CC1,> 40 µM (inactive),
Cc1ccc2c(c1)c(=O)c(C(=O)c1ccccc1)cn2CC(=O)Nc1ccc2c(c1)OCCO2,> 40 µM (inactive),
O=C(C1=CSCCO1)N1CCc2ccccc2C1,> 40 µM (inactive),
COc1cccc(N2CCCN(C(=O)c3ccc4nc(C)[nH]c4c3)CC2)c1,> 40 µM (inactive),
CSc1cccc(C(=O)Nc2ccc(-c3nc4ccccc4[nH]3)cc2)c1,> 40 µM (inactive),
Cc1ccccc1-n1ccc2nc(N3CCCC3)ncc2c1=O,> 40 µM (inactive),
O=C(/C=C/c1ccc(Br)cc1)Nc1cnc2ccccc2c1,> 40 µM (inactive),
Cn1c(=O)[nH]c2nncnc2c1=O,,4.68
CCC/C=C\C#CC/C=C\CCCCCCCC(=O)O,,5.61
COc1ccc(C(CNC(=O)c2cc(-c3ccc(Cl)cc3)on2)N2CCOCC2)cc1 (stereo unspecified),> 40 µM (inactive),
COc1ccc(CNc2ccc(C(=O)OCc3ccccc3F)cc2S(=O)(=O)Nc2cccc(OC)c2)cc1,> 40 µM (inactive),
COc1cccc(NC(=O)C(Sc2cccc(NC(=O)c3ccccc3F)c2)c2ccccc2)c1 (stereo unspecified),> 40 µM (inactive),
CCCCNC(=O)C1Sc2nnc(-c3ccccc3)n2NC1c1ccccc1 (stereo unspecified),> 40 µM (inactive),

Compound,IC50,pIC50
Cc1cccc(N2CCN(C(=O)c3nc4cccnc4n(C)c3=O)CC2)c1C,> 40 µM (inactive),
O=S(=O)(c1ccccc1Cl)N1CCN(c2ccc3nnc(-c4ccco4)n3n2)CC1,> 40 µM (inactive),
O=C(COc1ccccc1-c1nnc(-c2ccccc2)o1)NCCc1ccco1,,4.54
Cc1cc(C(=O)N2CCOCC2)c(C)n1-c1ccc(O)cc1,,4.64
C[C@@H]1CO[C@@H]2C3=C(C(=O)C=CC3=O)[C@H]3OC(=O)[C@@H]4CCC5[C@@H]1CCC52C34 (stereo partly specified),,4.60
CN(C)[C@@H]1C(=O)C(C(N)=O)=C(O)[C@@]2(O)C(=O)C3=C(O)c4c(O)cccc4[C@@](C)(O)C3[C@H](O)[C@@H]12 (stereo partly specified),,6.15
COc1ccc(NS(=O)(=O)c2cc(NC(=O)/C=C/c3ccco3)ccc2N2CCCC2)cc1,> 40 µM (inactive),
CSc1nc2ncn(CC(=O)Nc3ccc(Br)cc3)c(=O)c2s1,> 40 µM (inactive),
Cn1c(=O)n([C@@H](Cc2ccccc2)C(=O)N[C@@H](C(=O)O)c2ccc(O)cc2)c(=O)c2ccccc21,> 40 µM (inactive),
O=C(COC(=O)c1cc2c(s1)CCC2)c1ccc2[nH]c(=O)[nH]c2c1,> 40 µM (inactive),
N#Cc1c(-c2ccc(Cl)cc2)cc(-c2cccc(Br)c2)[nH]c1=O,,4.59
COc1ccc(NC(=O)Cn2cc(C(=O)c3ccc(Cl)cc3)c(=O)c3cc(F)ccc32)cc1,> 40 µM (inactive),
CCc1cccc(NC(=O)Cc2nnc3ccc(-c4nc(C)no4)cn23)c1,> 40 µM (inactive),
CC(C)[C@H]1CC[C@@]2(CO2)[C@H]2C(=O)OCC(C(=O)O)=C[C@H]12,,4.64
Cc1nnc(-c2cc(S(=O)(=O)N3CCN(c4ccc(F)cc4)CC3)c[nH]2)o1,> 40 µM (inactive),
O=C(c1cnccn1)N1CC[C@@H]2CNS(=O)(=O)[C@@H]2CC1,> 40 µM (inactive),
CCN(c1ccc(NC(=O)CSc2nnc(-c3ccccc3)n2-c2ccc(OC)c(OC)c2)cc1)C(C)C,> 40 µM (inactive),
Cc1ccc(NC(=O)c2ccc3nn(CC(=O)Nc4ccc(F)cc4F)c(=O)n3c2)cc1,> 40 µM (inactive),
